According to patent US20160271263A1 (Novo Nordisk A/S, priority 2010, published 2016):
pEC50: −log10 of the molar value. Numbered stars: 1 amine (or outer) side, 2 acyl side, 3 side chain; on linkers, the order of the positions; unused ones are H or OH. Square brackets hold non-standard residues; d marks the D form. Side chains are listed from the residue outwards. Peptide text beside a SMILES is read from it. * marks the point of attachment. C18 diacid = O=C(O)CCCCCCCCCCCCCCCCC(=O)*; γGlu = O=C(O)[C@H](CCC(=O)[*:2])N[*:1]; AEEA = NCCOCCOCC(=O)O

Biological target: glucagon receptor (Homo sapiens, UniProt P47871)
Assay: cell-based

Sequence of glucagon receptor (P47871 26-477): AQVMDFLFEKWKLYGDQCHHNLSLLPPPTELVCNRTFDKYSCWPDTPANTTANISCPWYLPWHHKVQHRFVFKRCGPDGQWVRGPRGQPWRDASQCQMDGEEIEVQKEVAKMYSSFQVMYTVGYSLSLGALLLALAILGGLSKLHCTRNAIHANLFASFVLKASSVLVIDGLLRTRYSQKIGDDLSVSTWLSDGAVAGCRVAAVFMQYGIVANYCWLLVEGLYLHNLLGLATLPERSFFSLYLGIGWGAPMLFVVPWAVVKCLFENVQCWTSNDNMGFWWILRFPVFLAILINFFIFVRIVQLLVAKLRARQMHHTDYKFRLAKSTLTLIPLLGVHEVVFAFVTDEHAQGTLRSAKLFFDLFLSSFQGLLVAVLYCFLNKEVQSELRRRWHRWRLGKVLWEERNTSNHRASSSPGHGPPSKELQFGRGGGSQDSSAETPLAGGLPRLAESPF

First: CC(C)C[C@H](NC(=O)[C@H](Cc1ccc(O)cc1)NC(=O)[C@H](CCCCN)NC(=O)[C@H](CO)NC(=O)[C@H](Cc1ccc(O)cc1)NC(=O)[C@H](CC(=O)O)NC(=O)[C@H](CO)NC(=O)[C@@H](NC(=O)[C@H](Cc1ccccc1)NC(=O)[C@@H](NC(=O)CNC(=O)[C@H](CCC(N)=O)NC(=O)[C@@H](CO)NC(=O)[C@@H](N)Cc1c[nH]cn1)[C@@H](C)O)[C@@H](C)O)C(=O)N[C@@H](CC(=O)O)C(=O)N[C@@H](CCC(=O)O)C(=O)N[C@@H](CCCNC(=N)N)C(=O)N[C@@H](CCCNC(=N)N)C(=O)N[C@@H](C)C(=O)N[C@@H](CCC(N)=O)C(=O)N[C@@H](CC(=O)O)C(=O)N[C@@H](Cc1ccccc1)C(=O)N[C@H](C(=O)N[C@@H](CCCCNC(=O)COCCOCCNC(=O)COCCOCCNC(=O)CC[C@H](NC(=O)CCCCCCCCCCCCCCCCC(=O)O)C(=O)O)C(=O)N[C@@H](Cc1c[nH]c2ccccc12)C(=O)N[C@@H](CC(C)C)C(=O)N[C@@H](CC(C)C)C(=O)N[C@@H](CC(N)=O)C(=O)N[C@H](C(=O)O)[C@@H](C)O)C(C)C [Example 2] (H-H[dS]QGTFTSDYSKYLDERRAQDFVK([AEEA-AEEA-γGlu-C18 diacid])WLLNT-OH; N-terminus and C-terminus assumed)
Second: CC(C)C[C@H](NC(=O)[C@H](Cc1ccc(O)cc1)NC(=O)[C@H](CCCCN)NC(=O)[C@H](CO)NC(=O)[C@H](Cc1ccc(O)cc1)NC(=O)[C@H](CC(=O)O)NC(=O)[C@H](CO)NC(=O)[C@@H](NC(=O)[C@H](Cc1ccccc1)NC(=O)[C@@H](NC(=O)CNC(=O)[C@H](CCC(N)=O)NC(=O)[C@H](CO)NC(=O)[C@@H](N)Cc1c[nH]cn1)[C@@H](C)O)[C@@H](C)O)C(=O)N[C@@H](CC(=O)O)C(=O)N[C@@H](CO)C(=O)N[C@@H](CCCNC(=N)N)C(=O)N[C@@H](CCCNC(=N)N)C(=O)N[C@@H](C)C(=O)N[C@@H](CCC(N)=O)C(=O)N[C@@H](CC(=O)O)C(=O)N[C@@H](Cc1ccccc1)C(=O)N[C@H](C(=O)N[C@@H](CCC(N)=O)C(=O)N[C@@H](Cc1c[nH]c2ccccc12)C(=O)N[C@@H](CC(C)C)C(=O)N[C@@H](CC(C)C)C(=O)N[C@@H](CCCCNC(=O)COCCOCCNC(=O)COCCOCCNC(=O)CC[C@H](NC(=O)CCCCCCCCCCCCCCCCC(=O)O)C(=O)O)C(=O)N[C@H](C(=O)O)[C@@H](C)O)C(C)C [Example 8]
The pEC50 of the first is 0.83 log units lower: 9.83 for the first, 10.66 for the second. The second is the more potent here.

`CC(C)C[C@H](NC(=O)[C@H](Cc1ccc(O)cc1)NC(=O)[C@H](CCCCN)NC(=O)[C@H](CO)NC(=O)[C@H](Cc1ccc(O)cc1)NC(=O)[C@H](CC(=O)O)NC(=O)[C@H](CO)NC(=O)[C@@H](NC(=O)[C@H](Cc1ccccc1)NC(=O)[C@@H](NC(=O)CNC(=O)[C@H](CCC(N)=O)NC(=O)[C@H](CO)NC(=O)[C@@H](N)Cc1c[nH]cn1)[C@@H](C)O)[C@@H](C)O)C(=O)N[C@@H](CC(=O)O)C(=O)N[C@@H](CO)C(=O)N[C@@H](CCCCN)C(=O)N[C@@H](CCCNC(=N)N)C(=O)N[C@@H](C)C(=O)N[C@@H](CCC(N)=O)C(=O)N[C@@H](CCC(=O)O)C(=O)N[C@@H](Cc1ccccc1)C(=O)N[C@H](C(=O)N[C@@H](CCCCNC(=O)COCCOCCNC(=O)COCCOCCNC(=O)CC[C@H](NC(=O)CCCCCCCCCCCCCCCCC(=O)O)C(=O)O)C(=O)N[C@@H](Cc1c[nH]c2ccccc12)C(=O)N[C@@H](CC(C)C)C(=O)N[C@@H](CC(C)C)C(=O)N[C@@H](CC(N)=O)C(=O)N[C@H](C(=O)O)[C@@H](C)O)C(C)C` [Example 4] (H-HSQGTFTSDYSKYLDSKRAQEFVK([AEEA-AEEA-γGlu-C18 diacid])WLLNT-OH; N-terminus and C-terminus assumed) and `CC(C)C[C@H](NC(=O)[C@H](Cc1ccc(O)cc1)NC(=O)[C@H](CCCCN)NC(=O)[C@H](CO)NC(=O)[C@H](Cc1ccc(O)cc1)NC(=O)[C@H](CC(=O)O)NC(=O)[C@H](CO)NC(=O)[C@@H](NC(=O)[C@H](Cc1ccccc1)NC(=O)[C@@H](NC(=O)CNC(=O)[C@H](CCC(N)=O)NC(=O)[C@H](CO)NC(=O)[C@@H](N)Cc1c[nH]cn1)[C@@H](C)O)[C@@H](C)O)C(=O)N[C@@H](CC(=O)O)C(=O)N[C@@H](CCCCNC(=O)COCCOCCNC(=O)COCCOCCNC(=O)CC[C@H](NC(=O)CCCCCCCCCCCCCCCCC(=O)O)C(=O)O)C(=O)N[C@@H](CCCCN)C(=O)N[C@@H](CCCNC(=N)N)C(=O)N[C@@H](C)C(=O)N[C@@H](CCC(N)=O)C(=O)N[C@@H](CCC(=O)O)C(=O)N[C@@H](Cc1ccccc1)C(=O)N[C@H](C(=O)N[C@@H](CCC(N)=O)C(=O)N[C@@H](Cc1c[nH]c2ccccc12)C(=O)N[C@@H](CC(C)C)C(=O)N[C@@H](CC(C)C)C(=O)N[C@@H](CC(N)=O)C(=O)N[C@H](C(=O)O)[C@@H](C)O)C(C)C` [Example 5] (H-HSQGTFTSDYSKYLDK([AEEA-AEEA-γGlu-C18 diacid])KRAQEFVQWLLNT-OH; N-terminus and C-terminus assumed) are within 0.2 log units of each other in pEC50: 10.66 for the first, 10.70 for the second.

First: CC(C)C[C@H](NC(=O)[C@H](Cc1ccc(O)cc1)NC(=O)[C@H](CCCCN)NC(=O)[C@H](CO)NC(=O)[C@H](Cc1ccc(O)cc1)NC(=O)[C@H](CC(=O)O)NC(=O)[C@H](CO)NC(=O)[C@@H](NC(=O)[C@H](Cc1ccccc1)NC(=O)[C@@H](NC(=O)CNC(=O)[C@H](CCC(N)=O)NC(=O)[C@H](CO)NC(=O)[C@@H](N)Cc1c[nH]cn1)[C@@H](C)O)[C@@H](C)O)C(=O)N[C@@H](CC(=O)O)C(=O)N[C@@H](CCCCNC(=O)COCCOCCNC(=O)COCCOCCNC(=O)CC[C@H](NC(=O)CCCCCCCCCCCCCCCCC(=O)O)C(=O)O)C(=O)N[C@@H](CCCCN)C(=O)N[C@@H](CCCCN)C(=O)N[C@@H](C)C(=O)N[C@@H](CCC(N)=O)C(=O)N[C@@H](CCC(=O)O)C(=O)N[C@@H](Cc1ccccc1)C(=O)N[C@H](C(=O)N[C@@H](CCC(N)=O)C(=O)N[C@@H](Cc1c[nH]c2ccccc12)C(=O)N[C@@H](CC(C)C)C(=O)N[C@@H](CC(C)C)C(=O)N[C@@H](CC(N)=O)C(=O)N[C@H](C(=O)O)[C@@H](C)O)C(C)C [Example 6] (H-HSQGTFTSDYSKYLDK([AEEA-AEEA-γGlu-C18 diacid])KKAQEFVQWLLNT-OH; N-terminus and C-terminus assumed)
Second: CC(C)C[C@H](NC(=O)[C@H](CC(C)C)NC(=O)[C@H](Cc1c[nH]c2ccccc12)NC(=O)[C@H](CCC(N)=O)NC(=O)[C@@H](NC(=O)[C@H](Cc1ccccc1)NC(=O)[C@H](CC(=O)O)NC(=O)[C@H](CCC(N)=O)NC(=O)[C@H](C)NC(=O)[C@H](CCCNC(=N)N)NC(=O)[C@H](CCCNC(=N)N)NC(=O)[C@H](CO)NC(=O)[C@H](CC(=O)O)NC(=O)[C@H](CC(C)C)NC(=O)[C@H](Cc1ccc(O)cc1)NC(=O)[C@H](CCCCN)NC(=O)[C@H](CO)NC(=O)[C@H](Cc1ccc(O)cc1)NC(=O)[C@H](CC(=O)O)NC(=O)[C@H](CO)NC(=O)[C@@H](NC(=O)[C@H](Cc1ccccc1)NC(=O)[C@@H](NC(=O)CNC(=O)[C@H](CCC(N)=O)NC(=O)[C@H](CO)NC(=O)[C@@H](N)Cc1c[nH]cn1)[C@@H](C)O)[C@@H](C)O)C(C)C)C(=O)N[C@@H](CC(N)=O)C(=O)N[C@@H](CCCCNC(=O)COCCOCCNC(=O)COCCOCCNC(=O)CC[C@H](NC(=O)CCCCCCCCCCCCCCCCC(=O)O)C(=O)O)C(=O)O [Example 10]
The pEC50 of the first is 0.36 log units higher: 10.70 for the first, 10.34 for the second.

First: CC(C)C[C@H](NC(=O)[C@H](Cc1ccc(O)cc1)NC(=O)[C@H](CCCCN)NC(=O)[C@H](CO)NC(=O)[C@H](Cc1ccc(O)cc1)NC(=O)[C@H](CC(=O)O)NC(=O)[C@H](CO)NC(=O)[C@@H](NC(=O)[C@H](Cc1ccccc1)NC(=O)[C@@H](NC(=O)CNC(=O)[C@H](CCC(N)=O)NC(=O)[C@H](CO)NC(=O)[C@@H](N)Cc1c[nH]cn1)[C@@H](C)O)[C@@H](C)O)C(=O)N[C@@H](CC(=O)O)C(=O)N[C@@H](CO)C(=O)N[C@@H](CCCNC(=N)N)C(=O)N[C@@H](CCCNC(=N)N)C(=O)N[C@@H](C)C(=O)N[C@@H](CCC(N)=O)C(=O)N[C@@H](CC(=O)O)C(=O)N[C@@H](Cc1ccccc1)C(=O)N[C@H](C(=O)N[C@@H](CCC(N)=O)C(=O)N[C@@H](CCCCNC(=O)COCCOCCNC(=O)COCCOCCNC(=O)CC[C@H](NC(=O)CCCCCCCCCCCCCCCCC(=O)O)C(=O)O)C(=O)N[C@@H](CC(C)C)C(=O)N[C@@H](CC(C)C)C(=O)N[C@@H](CC(N)=O)C(=O)N[C@H](C(=O)O)[C@@H](C)O)C(C)C [Example 7]
Second: CC(C)C[C@H](NC(=O)[C@H](Cc1ccc(O)cc1)NC(=O)[C@H](CCCCN)NC(=O)[C@H](CO)NC(=O)[C@H](Cc1ccc(O)cc1)NC(=O)[C@H](CC(=O)O)NC(=O)[C@H](CO)NC(=O)[C@@H](NC(=O)[C@H](Cc1ccccc1)NC(=O)[C@@H](NC(=O)CNC(=O)[C@H](CCC(N)=O)NC(=O)[C@H](CO)NC(=O)[C@@H](N)Cc1c[nH]cn1)[C@@H](C)O)[C@@H](C)O)C(=O)N[C@@H](CC(=O)O)C(=O)N[C@@H](CO)C(=O)N[C@@H](CCCNC(=N)N)C(=O)N[C@@H](CCCNC(=N)N)C(=O)N[C@@H](C)C(=O)N[C@@H](CCC(N)=O)C(=O)N[C@@H](CC(=O)O)C(=O)N[C@@H](Cc1ccccc1)C(=O)N[C@H](C(=O)N[C@@H](CCCCNC(=O)COCCOCCNC(=O)COCCOCCNC(=O)CC[C@H](NC(=O)CCCCCCCCCCCCCCCCC(=O)O)C(=O)O)C(=O)N[C@@H](Cc1c[nH]c2ccccc12)C(=O)N[C@@H](CC(C)C)C(=O)N[C@@H](CC(C)C)C(=O)N[C@@H](CO)C(=O)N[C@H](C(=O)O)[C@@H](C)O)C(C)C [Example 14]
The pEC50 of the first is 0.89 log units lower: 9.81 for the first, 10.70 for the second.

For `CC(C)C[C@H](NC(=O)[C@H](Cc1c[nH]c2ccccc12)NC(=O)[C@H](CCCCNC(=O)COCCOCCNC(=O)COCCOCCNC(=O)CC[C@H](NC(=O)CCCCCCCCCCCCCCCCC(=O)O)C(=O)O)NC(=O)[C@@H](NC(=O)[C@H](Cc1ccccc1)NC(=O)[C@H](CC(=O)O)NC(=O)[C@H](CCC(N)=O)NC(=O)[C@H](C)NC(=O)[C@H](CCCNC(=N)N)NC(=O)[C@H](CCCNC(=N)N)NC(=O)[C@@H](NC(=O)[C@H](CC(=O)O)NC(=O)[C@H](CC(C)C)NC(=O)[C@H](Cc1ccc(O)cc1)NC(=O)[C@H](CCCCN)NC(=O)[C@H](CO)NC(=O)[C@H](Cc1ccc(O)cc1)NC(=O)[C@H](CC(=O)O)NC(=O)[C@H](CO)NC(=O)[C@@H](NC(=O)[C@H](Cc1ccccc1)NC(=O)[C@@H](NC(=O)CNC(=O)[C@H](CCC(N)=O)NC(=O)[C@H](CO)NC(=O)[C@@H](N)Cc1c[nH]cn1)[C@@H](C)O)[C@@H](C)O)[C@@H](C)O)C(C)C)C(=O)N[C@@H](CC(C)C)C(=O)N[C@@H](CO)C(=O)N[C@H](C(=O)O)[C@@H](C)O` [Example 13] (H-HSQGTFTSDYSKYLDTRRAQDFVK([AEEA-AEEA-γGlu-C18 diacid])WLLST-OH; N-terminus and C-terminus assumed), the pEC50 was 10.80.
